Data: EP4702986A1, “POLYPEPTIDE AND USE THEREOF” (Biocells (Beijing) Biotech Co., Ltd., priority 2023, dated 2024)
Read-outs that look alike come from different tables or passages of the source. Numbered stars: 1 amine (or outer) side, 2 acyl side, 3 side chain; on linkers, the order of the positions; unused ones are H or OH. Bridge positions count the residues as written; N and C are the ends. Square brackets hold non-standard residues; d marks the D form. Side chains are listed from the residue outwards. Peptide text beside a SMILES is read from it. * marks the point of attachment. C18 diacid = O=C(O)CCCCCCCCCCCCCCCCC(=O)*; γGlu = O=C(O)[C@H](CCC(=O)[*:2])N[*:1]; Fumaryl(OMe) = COC(=O)/C=C/C(=O)*; Suc = O=C(CCC(=O)[*:2])[*:1]; Orn = NCCC[C@H](N)C(=O)O; Dab = NCC[C@H](N)C(=O)O; AEEA = NCCOCCOCC(=O)O

Target: T1, human ETA receptor (Homo sapiens, UniProt P25101)
T1 construct: expressed in transfected cells; host or cells: 293T-17 cells, transient transfection
T1 sequence (P25101 21-427): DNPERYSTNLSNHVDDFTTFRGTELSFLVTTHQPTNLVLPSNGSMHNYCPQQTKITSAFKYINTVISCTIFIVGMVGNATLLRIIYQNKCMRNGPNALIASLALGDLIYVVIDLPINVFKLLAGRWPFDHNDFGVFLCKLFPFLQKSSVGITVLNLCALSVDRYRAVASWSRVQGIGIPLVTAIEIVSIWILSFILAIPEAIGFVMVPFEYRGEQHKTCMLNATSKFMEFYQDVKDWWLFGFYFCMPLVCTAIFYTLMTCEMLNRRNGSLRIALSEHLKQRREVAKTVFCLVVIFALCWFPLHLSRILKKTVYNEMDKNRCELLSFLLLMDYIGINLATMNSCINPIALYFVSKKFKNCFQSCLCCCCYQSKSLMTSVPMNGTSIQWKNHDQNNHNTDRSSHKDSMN
Assay: Selectivity of polypeptides on human ETA receptor (IP-One Gq kit, % of positive control ET1)
Type: cell-based
Conditions: read-out: hETAR agonist activity, percentage of activity relative to ET1
Protocol: 293T-17 cells were seeded at a density of 650,000 cells per well in a 6-well plate and cultured overnight in an incubator at 37°C and 5% CO2. Afterward, the cells were transfected with an expression vector, PCDNA3.1-hETA which contained a human ETA receptor gene, at a plasmid concentration of 2.5 µg per well. The cells were further cultured for 48 hours, and green fluorescence expression was observed under a fluorescence microscope. The cells were then digested with trypsin and counted. The activity of compounds on the human ETA receptor was determined with the IP-One Gq kit from Cisbio Bioassays. The cells were suspended in Stim Buffer provided in the kit and the cell suspension was added to a 96-well detection plate at 7 µL cell suspension (containing 30,000 cells) per well. The polypeptides to be screened for activity (prepared according to the Preparation Example of the invention) and polypeptide human endothelin ET1 as positive control were dissolved in Stim B to be at a concentration of 2×, and 7 µL was added to the test cells, while 7 µL of PBS solution was added to the cells in the negative control wells. Human endothelin ET1 (ET1: […] (C1-C15,C3-C11)) set forth in SEQ ID No. 85 was used as the positive control polypeptide. The plate was sealed and incubated at 37°C for 1 h in a cell culture incubator. Detection wells, positive control wells, and PBS control wells were each added with 3 µL of IP1 d2 working solution and 3 µL of IP1 Tb cryptotate Antibody working solution. The plate was sealed and incubated in the dark at room temperature (25°C±5°C) for 1 h. The plate seal was removed, and the […] at 665 nm and 620 nm was measured with an ID5 microplate reader. The ratio of the acceptor emission signal to the donor emission signal, i.e., the value of (signal at 665 nm/signal at 620 nm)×10^4, was calculated for each well. With F3 representing the average value of values of signal at 665 nm/signal at 620 nm determined for the test sample at a specific concentration, F5 representing the average value of values of signal at 665 nm/signal at 620 nm determined for the positive control human endothelin ET1 at the same concentration, and T3 representing the average value of values of signal at 665 nm/signal at 620 nm determined for the PBS negative control, the percentage of activity of the test polypeptide sample relative to the positive control sample ET1 = (F3-T3)×100/(F5-T3) (see Table 6). hETA sequence (NCBI accession number L06622.1).

## CC[C@H](C)[C@H](NC(=O)[C@H](CC(=O)O)NC(=O)[C@H](CC(C)C)NC(=O)[C@H](Cc1c[nH]cn1)NC(=O)[C@H](C)NC(=O)[C@H](Cc1ccccc1)NC(=O)[C@H](Cc1ccc(O)cc1)NC(=O)[C@H](CCCCN)NC(=O)[C@H](C)NC(=O)[C@H](CCC(=O)O)NC(=O)[C@H](CCC(=O)O)NC(=O)[C@H](CC(=O)O)NC(=O)CCC(=O)O)C(=O)N[C@H](C(=O)N[C@@H](Cc1c[nH]c2ccccc12)C(=O)O)[C@@H](C)CC [BX-43] (Suc-DEEAKYFAHLDIIW-OH)
  activation at 1 µM: 13.5%
@10µM
  activation at 10 µM: 17%

## CC[C@H](C)[C@H](NC(=O)[C@H](CC(=O)O)NC(=O)[C@H](CCCCN)NC(=O)[C@H](Cc1c[nH]cn1)NC(=O)[C@H](C)NC(=O)[C@H](Cc1ccccc1)NC(=O)[C@H](Cc1ccc(O)cc1)NC(=O)[C@@H](NC(=O)[C@H](CCC(=O)O)NC(=O)[C@H](CCC(=O)O)NC(=O)[C@H](CCC(=O)O)NC(=O)[C@H](CC(=O)O)NC(=O)CCC(=O)O)C(C)C)C(=O)N[C@H](C(=O)N[C@@H](Cc1c[nH]c2ccccc12)C(=O)O)[C@@H](C)CC [BX-45] (Suc-DEEEVYFAHKDIIW-OH)
  activation at 1 µM: 14.7%

## CC[C@H](C)[C@H](NC(=O)[C@H](CC(=O)O)NC(=O)[C@H](CC(C)C)NC(=O)[C@H](Cc1c[nH]cn1)NC(=O)[C@H](C)NC(=O)[C@H](Cc1ccccc1)NC(=O)[C@H](Cc1ccc(O)cc1)NC(=O)[C@@H]1CCNC(=O)CC[C@H](NC(=O)[C@H](CC(=O)O)NC(=O)CCC(=O)O)C(=O)N[C@@H](CCC(=O)O)C(=O)N[C@@H](C)C(=O)N1)C(=O)N[C@H](C(=O)N[C@@H](Cc1c[nH]c2ccccc12)C(=O)O)[C@@H](C)CC [BX-49] (Suc-DEEA[Dab]YFAHLDIIW-OH; lactam 2-5)
@10nM
  activation at 0.01 µM: -20.9%
@100nM
  activation at 0.1 µM: -15.4%

## CC[C@H](C)[C@H](NC(=O)[C@H](CC(=O)O)NC(=O)[C@@H]1CCCCNC(=O)CC[C@H](NC(=O)[C@H](CCC(=O)O)NC(=O)[C@H](CCC(=O)O)NC(=O)[C@H](CC(=O)O)NC(=O)CCC(=O)O)C(=O)N[C@@H](C(C)C)C(=O)N[C@@H](Cc2ccc(O)cc2)C(=O)N[C@@H](Cc2ccccc2)C(=O)N[C@@H](C)C(=O)N[C@@H](Cc2c[nH]cn2)C(=O)N1)C(=O)N[C@H](C(=O)N[C@@H](Cc1c[nH]c2ccccc12)C(=O)O)[C@@H](C)CC [BX-50, Suc-DEE cyclo(EVYFAHK)DIIW] (Suc-DEEEVYFAHKDIIW-OH; lactam 4-10)
  activation at 0.01 µM: 10.1%
  activation at 0.1 µM: -6.92%

## CC[C@H](C)[C@H](NC(=O)[C@H](CC(=O)O)NC(=O)[C@H](CCCN)NC(=O)[C@H](Cc1c[nH]cn1)NC(=O)[C@H](C)NC(=O)[C@H](Cc1ccccc1)NC(=O)[C@H](Cc1ccc(O)cc1)NC(=O)[C@@H](NC(=O)[C@H](CCC(=O)O)NC(=O)[C@H](CCC(=O)O)NC(=O)[C@H](CCC(=O)O)NC(=O)[C@H](CC(=O)O)NC(=O)CCC(=O)O)C(C)C)C(=O)N[C@H](C(=O)N[C@@H](Cc1c[nH]c2ccccc12)C(=O)O)[C@@H](C)CC [BX-53, Suc-DEEEVYFAHOrnDIIW] (Suc-DEEEVYFAH[Orn]DIIW-OH)
  activation at 0.01 µM: -17.6%
  activation at 0.1 µM: -17%

## CC[C@H](C)[C@H](NC(=O)[C@H](CC(=O)O)NC(=O)[C@H](CCCCNC(=O)COCCOCCNC(=O)COCCOCCNC(=O)CC[C@H](NC(=O)CCCCCCCCCCCCCCCCC(=O)O)C(=O)O)NC(=O)[C@H](Cc1c[nH]cn1)NC(=O)[C@H](C)NC(=O)[C@H](Cc1ccccc1)NC(=O)[C@H](Cc1ccc(O)cc1)NC(=O)[C@@H](NC(=O)[C@H](CCC(=O)O)NC(=O)[C@H](CCC(=O)O)NC(=O)[C@H](CCC(=O)O)NC(=O)[C@H](CC(=O)O)NC(=O)CCC(=O)O)C(C)C)C(=O)N[C@H](C(=O)N[C@@H](Cc1c[nH]c2ccccc12)C(=O)O)[C@@H](C)CC [BX-54] (Suc-DEEEVYFAHK([AEEA-AEEA-γGlu-C18 diacid])DIIW-OH)
@10µM
  activation at 10 µM: -18.5%
@100µM
  activation at 100 µM: -8.66%

## CC[C@H](C)[C@H](NC(=O)[C@H](CC(=O)O)NC(=O)[C@H](CCCCN)NC(=O)[C@H](Cc1c[nH]cn1)NC(=O)[C@H](C)NC(=O)[C@H](Cc1ccccc1)NC(=O)[C@H](Cc1ccc(O)cc1)NC(=O)[C@@H](NC(=O)[C@H](CCC(=O)O)NC(=O)[C@H](CCC(=O)O)NC(=O)[C@H](CCC(=O)O)NC(=O)[C@H](CC(=O)O)NC(=O)/C=C/C(=O)OC)C(C)C)C(=O)N[C@H](C(=O)N[C@@H](Cc1c[nH]c2ccccc12)C(=O)O)[C@@H](C)CC [BX-58] ({Fumaryl(OMe)}-DEEEVYFAHKDIIW-OH)
@10µM
  activation at 10 µM: -5.95%
@100µM
  activation at 100 µM: -2.01%

## CC[C@H](C)[C@H](NC(=O)[C@H](CC(=O)O)NC(=O)[C@H](CCCCNC(=O)CC[C@H](NC(=O)COCCOCCNC(=O)COCCOCCNC(=O)CCCCCCCCCCCCCCCCC(=O)O)C(=O)O)NC(=O)[C@H](Cc1c[nH]cn1)NC(=O)[C@H](C)NC(=O)[C@H](Cc1ccccc1)NC(=O)[C@H](Cc1ccc(O)cc1)NC(=O)[C@@H](NC(=O)[C@H](C)NC(=O)[C@H](CCC(=O)O)NC(=O)[C@H](CCC(=O)O)NC(=O)[C@H](CC(=O)O)NC(=O)CCC(=O)O)C(C)C)C(=O)N[C@H](C(=O)N[C@@H](Cc1c[nH]c2ccccc12)C(=O)O)[C@@H](C)CC [BX-74] (Suc-DEEAVYFAHK([γGlu-AEEA-AEEA-C18 diacid])DIIW-OH)
  activation at 10 µM: -2.64%
  activation at 100 µM: -13.5%
